The subject of the experiment is BDF1 mice, P388 leukemia ip, median survival T/C. The experiment is described as follows: NCI In Vivo Anticancer Drug Screen. Data for tumor model P388 Leukemia (intraperitoneal) in B6D2F1 (BDF1) mice. The settings on record: endpoint: median survival time, higher = longer survival. An outline of the steps: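 Survival ratio, drug arm over vehicle arm, in mice with a transplanted tumour.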

Where [1] appears, read: dose: 100.0 mg/kg/injection, schedule: Q01DX009 (ip), vehicle: saline.
Where [2] appears, read: dose: 200.0 mg/kg/injection, schedule: Q01DX009 (ip), vehicle: saline.
Where [3] appears, read: dose: 100.0 mg/kg/injection, schedule: Q01DX009 (ip), vehicle: saline with Tween-80.
Setting [4] is: dose: 100.0 mg/kg/injection, schedule: Q04DX003 (ip), vehicle: saline with Tween-80.
Setting [5] is: dose: 150.0 mg/kg/injection, schedule: Q04DX003 (ip), vehicle: saline with Tween-80.
The mark [6] stands for this setting: dose: 200.0 mg/kg/injection, schedule: Q04DX003 (ip), vehicle: saline with Tween-80.
The mark [7] stands for this setting: dose: 200.0 mg/kg/injection, schedule: Q01DX009 (ip), vehicle: saline with Tween-80.
Setting [8] is: dose: 400.0 mg/kg/injection, schedule: Q01DX009 (ip), vehicle: saline with Tween-80.
The mark [9] stands for this setting: dose: 50.0 mg/kg/injection, schedule: Q01DX009 (ip), vehicle: saline with Tween-80.
[10] abbreviates: dose: 100.0 mg/kg/injection, schedule: Q01DX009 (ip), vehicle: Klucel (hydroxypropylcellulose) (HPC).
[11] abbreviates: dose: 100.0 mg/kg/injection, schedule: Q04DX003 (ip), vehicle: Klucel (hydroxypropylcellulose) (HPC).
Where [12] appears, read: dose: 200.0 mg/kg/injection, schedule: Q01DX009 (ip), vehicle: Klucel (hydroxypropylcellulose) (HPC).
Setting [13] is: dose: 200.0 mg/kg/injection, schedule: Q04DX003 (ip), vehicle: Klucel (hydroxypropylcellulose) (HPC).
[14] abbreviates: dose: 400.0 mg/kg/injection, schedule: Q01DX009 (ip), vehicle: Klucel (hydroxypropylcellulose) (HPC).
The mark [15] stands for this setting: dose: 400.0 mg/kg/injection, schedule: Q04DX003 (ip), vehicle: Klucel (hydroxypropylcellulose) (HPC).
The mark [16] stands for this setting: dose: 50.0 mg/kg/injection, schedule: Q01DX009 (ip), vehicle: Klucel (hydroxypropylcellulose) (HPC).

Toxic doses and inconclusive results are not listed.

Regarding `COC(=O)C(C)C(=O)OC`, the T/C is, setting by setting: (dose: 100.0 mg/kg/injection, schedule: Q01DX001 (ip), vehicle: saline) 100 % of control; under setting [1], 90 % of control; (dose: 200.0 mg/kg/injection, schedule: Q01DX001 (ip), vehicle: saline) 100 % of control; under setting [2], 100 % of control; (dose: 400.0 mg/kg/injection, schedule: Q01DX001 (ip), vehicle: saline) 113 % of control; (dose: 400.0 mg/kg/injection, schedule: Q01DX009 (ip), vehicle: saline) 109 % of control.

`CC(=O)[O][Pb]([O]C(C)=O)([c]1ccccc1)[c]1ccccc1`: the T/C by setting is: (dose: 44.0 mg/kg/injection, schedule: Q01DX009 (ip), vehicle: saline with Tween-80) 177 % of control; (dose: 66.0 mg/kg/injection, schedule: Q01DX009 (ip), vehicle: saline with Tween-80) 184 % of control; under setting [3], 201 % of control; (dose: 150.0 mg/kg/injection, schedule: Q01DX009 (ip), vehicle: saline with Tween-80) 93 % of control.

Consider `C/C(=N/N=C(N)N)c1ccc(NC(=O)Nc2ccc(/C(C)=N/N=C(N)N)cc2)cc1`, for which the T/C by setting is: (dose: 66.0 mg/kg/injection, schedule: Q04DX003 (ip), vehicle: saline with Tween-80) 154 % of control; under setting [3], 90 % of control; under setting [4], 150 % of control; under setting [5], 159 % of control.

For the molecule `CCCC#CCOCC(O)CCl` (configuration not stated), the T/C is, setting by setting: under setting [1], 104 % of control; under setting [4], 104 % of control; under setting [2], 109 % of control; under setting [6], 108 % of control.

Turning to `COc1ccc(/C=C/C(=O)c2ccc(OC)c(OC)c2)cc1OC`, the T/C is, setting by setting: under setting [3], 90 % of control; under setting [7], 104 % of control; under setting [8], 118 % of control.

Consider `COc1cccc2c1C(=O)c1c(O)c3c(c(O)c1C2=O)C[C@@](O)(C(=O)COC(=O)c1cccnc1)C[C@@H]3OC1CC(N)C(O)C(C)O1` (some centres not stated), for which the T/C (dose: 1.32 mg/kg/injection, schedule: Q01DX009 (ip), vehicle: saline) was 195 % of control and the T/C (dose: 2.0 mg/kg/injection, schedule: Q01DX009 (ip), vehicle: saline) was 237 % of control.

In the case of `Cc1ccc(Nc2ccc(Nc3ccc(C)cc3)c3c2C(=O)c2ccccc2C3=O)cc1`, the T/C was 90 % of control under setting [9]; 86 % of control under setting [3]; 88 % of control under setting [4]; 90 % of control under setting [7]; 100 % of control under setting [6].

Take `BrC(Br)c1ccc2ccccc2n1`: the T/C reads like this: under setting [10], 108 % of control; under setting [11], 100 % of control; under setting [12], 108 % of control; under setting [13], 91 % of control; under setting [14], 95 % of control; under setting [15], 91 % of control.

With `CC(/C(=N/N(C)C)c1ccccc1)C(C)/C(=N\N(C)C)c1ccccc1` (configuration not stated), the T/C was 97 % of control (dose: 100.0 mg/kg/injection, schedule: Q04DX002 (ip), vehicle: saline with Tween-80); 110 % of control (dose: 200.0 mg/kg/injection, schedule: Q04DX002 (ip), vehicle: saline with Tween-80); 112 % of control (dose: 400.0 mg/kg/injection, schedule: Q04DX002 (ip), vehicle: saline with Tween-80).

Consider `O=C(NC(=S)N1CC1)c1ccccc1`, for which the T/C by setting is: under setting [9], 93 % of control; under setting [3], 92 % of control; under setting [7], 104 % of control.

On to `O=C1C(Br)=CC(=NCl)C=C1Br`, for which the T/C reads like this: (dose: 3.13 mg/kg/injection, schedule: Q01DX009 (ip), vehicle: Klucel (hydroxypropylcellulose) (HPC)) 118 % of control; (dose: 6.25 mg/kg/injection, schedule: Q01DX009 (ip), vehicle: Klucel (hydroxypropylcellulose) (HPC)) 112 % of control; (dose: 12.5 mg/kg/injection, schedule: Q01DX009 (ip), vehicle: Klucel (hydroxypropylcellulose) (HPC)) 120 % of control; (dose: 25.0 mg/kg/injection, schedule: Q01DX009 (ip), vehicle: Klucel (hydroxypropylcellulose) (HPC)) 103 % of control.

With `Nc1ccccc1.[C-]#[O+].[C-]#[O+].[C-]#[O+].[C-]#[O+].[C-]#[O+].[Cr]`, the T/C is 91 % of control (dose: 2.5 mg/kg/injection, schedule: Q01DX009 (ip), vehicle: saline) and 101 % of control (dose: 5.0 mg/kg/injection, schedule: Q01DX009 (ip), vehicle: saline).

In the case of `OC1c2cc(Cl)ccc2-c2c(Cl)cc(Cl)cc21` (configuration not stated), the T/C runs as follows: under setting [9], 104 % of control; under setting [3], 100 % of control; under setting [4], 91 % of control; under setting [7], 108 % of control; under setting [6], 100 % of control.

For the molecule `[N-]=[N+]=C1C(=O)NN=C1c1ccccc1`, the T/C was 104 % of control (dose: 25.0 mg/kg/injection, schedule: Q04DX003 (ip), vehicle: Klucel (hydroxypropylcellulose) (HPC)); 114 % of control (dose: 50.0 mg/kg/injection, schedule: Q04DX003 (ip), vehicle: Klucel (hydroxypropylcellulose) (HPC)); 95 % of control under setting [11].

Take `COC(=O)CCCCC(=O)OCC#CC#CCOC(=O)CCCCC(=O)OC`: the T/C by setting is: under setting [10], 104 % of control; under setting [11], 104 % of control; under setting [12], 104 % of control; under setting [13], 104 % of control; under setting [14], 109 % of control; under setting [15], 100 % of control.

On to `S=c1nc(-c2ccccc2)c(-c2ccccc2)n[nH]1`, for which the T/C reads like this: (dose: 20.0 mg/kg/injection, schedule: Q01DX001 (ip), vehicle: other) 95 % of control; (dose: 40.0 mg/kg/injection, schedule: Q01DX001 (ip), vehicle: other) 86 % of control; (dose: 40.0 mg/kg/injection, schedule: Q04DX003 (ip), vehicle: saline with Tween-80) 104 % of control; (dose: 75.0 mg/kg/injection, schedule: Q01DX001 (ip), vehicle: other) 122 % of control; (dose: 75.0 mg/kg/injection, schedule: Q04DX003 (ip), vehicle: saline with Tween-80) 108 % of control; (dose: 150.0 mg/kg/injection, schedule: Q01DX001 (ip), vehicle: other) 90 % of control. In addition, the T/C under setting [5] is 116 % of control.

In the case of `Cc1cccc(N2CCNCC2)c1`, the T/C by setting is: (dose: 6.25 mg/kg/injection, schedule: Q04DX003 (ip), vehicle: saline sonified) 95 % of control; (dose: 12.5 mg/kg/injection, schedule: Q04DX003 (ip), vehicle: saline sonified) 100 % of control; (dose: 25.0 mg/kg/injection, schedule: Q04DX003 (ip), vehicle: saline sonified) 109 % of control.

For the molecule `CCC(=O)O[C@H]1CC[C@H]2[C@@H]3C[C@H](C)C4=CC(=O)C=C[C@]4(C)[C@H]3C(=O)C[C@]12C`, the T/C is, setting by setting: under setting [3], 100 % of control; under setting [7], 91 % of control; under setting [8], 95 % of control.

Regarding `CCCCCCCCCCCCN1CCCC(O)C1` (configuration not stated), the T/C is, setting by setting: (dose: 25.0 mg/kg/injection, schedule: Q01DX009 (ip), vehicle: saline with Tween-80) 104 % of control; under setting [9], 100 % of control; (dose: 50.0 mg/kg/injection, schedule: Q04DX003 (ip), vehicle: saline with Tween-80) 120 % of control; under setting [4], 90 % of control.

For `CC1=C(C)C2(C)C1(C)C1(C)C(C)=C(C)C21C` (configuration not stated), the T/C is, setting by setting: under setting [16], 100 % of control; under setting [10], 90 % of control; under setting [12], 105 % of control.

As for `CCCCC[C@@H](CN(C)C)[C@H](O)/C=C/c1ccc(Cl)cc1`, the T/C under setting [16] is 96 % of control.

As for `CC(=O)OC1C2CCC3C(C)(O)C4CC(O)C(C)(C)C4(O)C(O)CC13CC2(C)O` (configuration not stated), the T/C is 96 % of control (dose: 12.5 micrograms/kg/injection, schedule: Q01DX009 (ip), vehicle: Klucel (hydroxypropylcellulose) (HPC)); 91 % of control (dose: 25.0 micrograms/kg/injection, schedule: Q01DX009 (ip), vehicle: Klucel (hydroxypropylcellulose) (HPC)); 87 % of control (dose: 50.0 micrograms/kg/injection, schedule: Q01DX009 (ip), vehicle: Klucel (hydroxypropylcellulose) (HPC)).

Take `CC(=O)N1CCc2cc(N)ccc21`: the T/C by setting is: (dose: 50.0 mg/kg/injection, schedule: Q04DX003 (ip), vehicle: saline) 95 % of control; (dose: 100.0 mg/kg/injection, schedule: Q04DX003 (ip), vehicle: saline) 95 % of control; (dose: 200.0 mg/kg/injection, schedule: Q04DX003 (ip), vehicle: saline) 91 % of control.

(Values after PubChem BioAssay AID328 (DTP/NCI, 2004).)
